Test results taken from the supplement of paper PMC10307832.

Assays:
Assay in all cases: relative viability (nuclei count vs DMSO), 5 days (fraction); higher = more cells survive
[1] = compound: C1CC(C1)(C(=O)O)C(=O)O.[NH2-].[NH2-].[Pt+2] [Carboplatin] + N=C(N)NC(=N)NCCc1ccccc1 [Phenformin] (partner 250 µM)
Procedure, shortened: (§1)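 Five library-drug doses in √10 steps were combined with a fixed anchor-drug dose, or a single drug was given alone, by pin tool to lung cancer cell lines in 1536-well plates the day after seeding. Nuclei were stained and counted after 5 days. Relative viability is the nuclei count in treated wells over that in vehicle wells, taken as the median of duplicate plates.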

[2] = compound: CC[C@H](C)N1C=C(C2=C(C=C(C=C21)C3=CN=C(C=C3)N4CCNCC4)C(=O)NCC5=C(C=C(NC5=O)C)C)C [GSK126] + CS(=O)(=O)CCNCc1ccc(-c2ccc3ncnc(Nc4ccc(OCc5cccc(F)c5)c(Cl)c4)c3c2)o1 [Lapatinib] (partner 2 µM)
Procedure, shortened: as §1

[3] = compound: NS(=O)(=O)OC[C@@H]1C[C@@H](n2ccc3c(N[C@H]4CCc5ccccc54)ncnc32)C[C@@H]1O [MLN4924] + CCNC(=O)c1noc(-c2cc(C(C)C)c(O)cc2O)c1-c1ccc(CN2CCOCC2)cc1 [Luminespib] (partner 0.01 µM)
Procedure, shortened: as §1

[4] = compound: NS(=O)(=O)OC[C@@H]1C[C@@H](n2ccc3c(N[C@H]4CCc5ccccc54)ncnc32)C[C@@H]1O [MLN4924] + Cc1nc(Nc2ncc(C(=O)Nc3c(C)cccc3Cl)s2)cc(N2CCN(CCO)CC2)n1 [Dasatinib] (partner 0.075 µM)
Procedure, shortened: as §1

UMC-11
relative viability ([1]; first compound 0.08 µM): 0.346 | relative viability ([1]; first compound 0.253 µM): 0.324 | relative viability ([1]; first compound 0.8 µM): 0.317 | relative viability ([1]; first compound 2.53 µM): 0.331 | relative viability ([1]; first compound 8 µM): 0.275 | relative viability ([2]; first compound 0.08 µM): 1.05 | relative viability ([2]; first compound 0.253 µM): 0.998 | relative viability ([2]; first compound 0.8 µM): 1.13 | relative viability ([2]; first compound 2.53 µM): 0.796 | relative viability ([2]; first compound 8 µM): 0.959 | relative viability ([3]; first compound 0.04 µM): 0.598 | relative viability ([3]; first compound 0.1265 µM): 0.351 | relative viability ([3]; first compound 0.4 µM): 0.285 | relative viability ([3]; first compound 1.265 µM): 0.17 | relative viability ([3]; first compound 4 µM): 0.182 | relative viability ([4]; first compound 0.04 µM): 0.505 | relative viability ([4]; first compound 0.1265 µM): 0.349 | relative viability ([4]; first compound 0.4 µM): 0.251 | relative viability ([4]; first compound 1.265 µM): 0.151 | relative viability ([4]; first compound 4 µM): 0.177
